Laboratory results from PubChem BioAssay (NCI).
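How tested: cells in 96-well plates exposed to compound for 48 hours at five concentrations. GI50 = concentration required for 50% inhibition of growth. TGI: total growth inhibition.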

Key:
Assay in all cases: inhibition of tumour cell growth, NCI panel, 48 h
[1] = test system: A549 NSCLC
[2] = test system: HOP-92 NSCLC
[3] = test system: SK-MEL-5 melanoma
[4] = test system: MDA-MB-231 breast
[5] = test system: A498 renal
[6] = test system: HT29 colon
[7] = test system: CAKI-1 renal
[8] = test system: OVCAR-5 ovarian
[9] = test system: HOP-62 NSCLC
[10] = test system: BT-549 breast

Compound: O=C(C[C@@H]1NCCC[C@H]1O)Cn1cnc2cc(Br)c(Cl)cc2c1=O
- TGI [1]: 0.143 µM
- TGI [2]: 0.11 µM
- TGI [3]: 0.0473 µM
- TGI [4]: 0.285 µM
- TGI [5]: 0.316 µM
- TGI [6]: 0.191 µM
- TGI [7]: 0.313 µM
- TGI [8]: 0.0883 µM
- TGI [9]: 1.01 µM
- TGI [10]: 0.259 µM

Compound: O=C1CCSSCCC(=O)Nc2ccccc2N1
- TGI [1]: > 100 µM
- TGI [2]: > 100 µM
- TGI [3]: > 100 µM
- TGI [4]: > 100 µM
- TGI [5]: > 100 µM
- TGI [6]: > 100 µM
- TGI [7]: > 100 µM
- TGI [8]: > 100 µM
- TGI [9]: > 100 µM
- TGI [10]: > 100 µM

Compound: Cc1ccc(Nc2nc(=O)[nH]c(=O)[nH]2)cc1N
- TGI [1]: > 100 µM
- TGI [2]: > 100 µM
- TGI [3]: > 100 µM
- TGI [4]: > 100 µM
- TGI [5]: > 100 µM
- TGI [6]: > 100 µM
- TGI [7]: > 100 µM
- TGI [8]: > 100 µM
- TGI [9]: > 100 µM
- TGI [10]: > 100 µM

Compound: COc1cc(S(=O)(=O)Nc2nc(-c3ccc(N4C(=O)/C(=C/c5ccccc5)N=C4c4ccccc4)cc3)cs2)ccc1Cl
- TGI [1]: > 100 µM
- TGI [2]: > 100 µM
- TGI [3]: > 100 µM
- TGI [4]: 70.1 µM
- TGI [5]: > 100 µM
- TGI [6]: > 100 µM
- TGI [7]: > 100 µM
- TGI [8]: > 100 µM
- TGI [9]: > 100 µM
- TGI [10]: 75 µM

Compound: CCOC(=O)c1c2c(n(C)c1-c1ccccc1)C(=O)C(C)=CC2=O
- TGI [1]: 32.9 µM
- TGI [2]: 5.46 µM
- TGI [3]: 21.5 µM
- TGI [4]: 4.62 µM
- TGI [5]: 34.8 µM
- TGI [6]: 35.1 µM
- TGI [7]: 28.1 µM
- TGI [8]: 19.6 µM
- TGI [9]: 33.6 µM
- TGI [10]: 27.7 µM

Compound: COc1ccc(N2C(=O)C3c4[nH]c5ccc(C)cc5c4C4CCC(C(C)C)CC4C3C2=O)cc1 (stereo not given)
- TGI [1]: > 100 µM
- TGI [2]: > 100 µM
- TGI [3]: > 100 µM
- TGI [4]: > 100 µM
- TGI [5]: > 100 µM
- TGI [6]: > 100 µM
- TGI [7]: > 100 µM
- TGI [8]: > 100 µM
- TGI [9]: > 100 µM
- TGI [10]: > 100 µM

Compound: CC1(C)OC[C@@H](/C=C\CCO[Si](c2ccccc2)(c2ccccc2)C(C)(C)C)N1C(=O)c1ccccc1
- TGI [1]: 23.2 µM
- TGI [2]: 52.7 µM
- TGI [3]: 12 µM
- TGI [4]: 38.4 µM
- TGI [5]: 44.8 µM
- TGI [6]: 17.3 µM
- TGI [7]: > 100 µM
- TGI [8]: 46 µM
- TGI [9]: > 100 µM
- TGI [10]: > 100 µM

Compound: O=C(Nc1cccc2nsnc12)c1cc2c(cc1Cl)Sc1nccn1S2(=O)=O
- TGI [1]: 56.1 µM
- TGI [2]: 25.2 µM
- TGI [3]: 38.5 µM
- TGI [4]: 21.9 µM
- TGI [5]: 26.5 µM
- TGI [6]: 7.67 µM
- TGI [7]: 25.7 µM
- TGI [8]: > 91.6 µM
- TGI [9]: 4.37 µM
- TGI [10]: 36.9 µM

Compound: c1ccc2c3c(ccc2c1)CSCc1ccc2ccccc2c1-3
- TGI [1]: > 100 µM
- TGI [2]: > 100 µM
- TGI [3]: > 100 µM
- TGI [4]: > 100 µM
- TGI [5]: > 100 µM
- TGI [6]: > 100 µM
- TGI [7]: > 100 µM
- TGI [8]: > 100 µM
- TGI [9]: > 100 µM
- TGI [10]: > 100 µM

Compound: Cc1ncc([N+](=O)[O-])n1CCN=[N+]=[N-]
- TGI [1]: > 100 µM
- TGI [2]: > 100 µM
- TGI [3]: > 100 µM
- TGI [4]: > 100 µM
- TGI [5]: > 100 µM
- TGI [6]: > 100 µM
- TGI [7]: > 100 µM
- TGI [8]: > 100 µM
- TGI [9]: > 100 µM
- TGI [10]: > 100 µM

Compound: Cc1cs/c(=N\C(P(=O)(O)O)P(=O)(O)O)n1C
- TGI [1]: > 100 µM
- TGI [2]: > 100 µM
- TGI [3]: > 100 µM
- TGI [4]: > 100 µM
- TGI [5]: > 100 µM
- TGI [6]: > 100 µM
- TGI [7]: > 100 µM
- TGI [8]: > 100 µM
- TGI [9]: > 100 µM
- TGI [10]: > 100 µM

Compound: CCCCCCCCCCCCOC1C(COCCN2CCCC2)OC2OC(C)(C)OC21 (stereo not given)
- TGI [1]: 16.1 µM
- TGI [2]: 2.72 µM
- TGI [3]: 2.95 µM
- TGI [4]: 2.92 µM
- TGI [5]: 27.9 µM
- TGI [6]: 2.98 µM
- TGI [7]: 3.04 µM
- TGI [8]: 2.88 µM
- TGI [9]: 3.2 µM
- TGI [10]: 3.22 µM

Compound: O=C1c2ccccc2S(=O)(=O)c2ccccc21
- TGI [1]: > 100 µM
- TGI [2]: > 100 µM
- TGI [3]: > 100 µM
- TGI [4]: > 100 µM
- TGI [5]: > 100 µM
- TGI [6]: > 100 µM
- TGI [7]: > 100 µM
- TGI [8]: > 100 µM
- TGI [9]: > 100 µM
- TGI [10]: > 100 µM

Compound: COc1ccccc1C1C(C#N)=C(N)OC2=C1C(=O)CCC2 (stereo not given)
- GI50 [1]: > 100 µM
- TGI [1]: > 100 µM
- GI50 [2]: 15.8 µM
- TGI [2]: > 100 µM
- GI50 [3]: > 100 µM
- TGI [3]: > 100 µM
- GI50 [4]: 16.2 µM
- TGI [4]: > 100 µM
- GI50 [5]: > 100 µM
- TGI [5]: > 100 µM
- GI50 [6]: > 100 µM
- TGI [6]: > 100 µM
- GI50 [7]: > 100 µM
- TGI [7]: > 100 µM
- GI50 [8]: > 100 µM
- TGI [8]: > 100 µM
- GI50 [9]: > 100 µM
- TGI [9]: > 100 µM
- GI50 [10]: > 100 µM
- TGI [10]: > 100 µM

Compound: O=[N+]([O-])c1ccc2nc3ccc([N+](=O)[O-])cn3c2c1
- TGI [1]: > 100 µM
- TGI [2]: > 100 µM
- TGI [3]: > 100 µM
- TGI [4]: > 100 µM
- TGI [5]: > 100 µM
- TGI [6]: > 100 µM
- TGI [7]: 89.2 µM
- TGI [8]: > 100 µM
- TGI [9]: 39.1 µM
- TGI [10]: > 100 µM

Compound: N#Cc1c(N)c(-c2ccc(Cl)cc2)c(F)c2ccccc12
- TGI [1]: > 100 µM
- TGI [2]: 59.4 µM
- TGI [3]: > 100 µM
- TGI [4]: > 100 µM
- TGI [5]: > 100 µM
- TGI [6]: > 100 µM
- TGI [7]: > 100 µM
- TGI [8]: > 100 µM
- TGI [9]: > 100 µM
- TGI [10]: > 100 µM

Compound: O=C(c1ccccc1F)c1c(NCc2ccccc2)c(=O)c1=O
- TGI [1]: > 100 µM
- TGI [2]: > 100 µM
- TGI [3]: > 100 µM
- TGI [4]: > 100 µM
- TGI [5]: > 100 µM
- TGI [6]: > 100 µM
- TGI [7]: > 100 µM
- TGI [8]: > 100 µM
- TGI [9]: > 100 µM
- TGI [10]: > 100 µM

Compound: Cc1cnc(Cl)nc1C(C#N)c1nc2ccccc2n1C (stereo not given)
- TGI [1]: > 100 µM
- TGI [2]: > 100 µM
- TGI [3]: > 100 µM
- TGI [4]: > 100 µM
- TGI [5]: > 100 µM
- TGI [6]: > 100 µM
- TGI [7]: > 100 µM
- TGI [8]: > 100 µM
- TGI [9]: > 100 µM
- TGI [10]: > 100 µM

Compound: COc1ccc(C2CC(c3c(C)nn(-c4ccccc4)c3-c3ccc(C)cc3O)=NN2c2ccccc2)cc1 (stereo not given)
- TGI [1]: > 100 µM
- TGI [2]: > 100 µM
- TGI [3]: > 100 µM
- TGI [4]: > 100 µM
- TGI [5]: > 100 µM
- TGI [6]: > 44 µM
- TGI [7]: > 100 µM
- TGI [8]: > 100 µM
- TGI [9]: > 100 µM
- TGI [10]: > 100 µM

Compound: COc1ccccc1C(=O)c1c(N2CCCCC2)c(=O)c1=O
- TGI [1]: > 100 µM
- TGI [2]: > 100 µM
- TGI [3]: > 100 µM
- TGI [4]: > 100 µM
- TGI [5]: > 100 µM
- TGI [6]: > 100 µM
- TGI [7]: > 100 µM
- TGI [8]: > 100 µM
- TGI [9]: > 100 µM
- TGI [10]: > 100 µM
